Data reported in patent publication US20250339399A1, “SUPRAMOLECULAR SELF-ASSEMBLY SYSTEM” (Beijing Creatron Institute of Pharmaceutical Research Co., …, priority 2022, published 2025).
Counter-ions that a name gives are not always drawn. Like-named read-outs stand apart in the source and are kept apart here. Blank lines part the entries; values can stand above or below the molecule they belong to.

Columns and labels:
[1] = cited from earlier work
[2] = Binary (carrier), ternary and quaternary supramolecular self-assembly systems of polymer, carrier building block and target: guest concentration over incubation time (Examples 1-56); format: physicochemical; details: for Times that of the initial medium / Concentration of guest molecule in solution: 6 h
Description: (§1) pH 2.0 hydrochloric acid, pH 4.5 acetate, and pH 6.5, pH 6.8, or pH 7.4 phosphate buffer solutions were prepared. The selection of each initial medium followed the principle that the solubility in the initial medium of the selected targets (or active ingredients) should low enough, but should meet the detection sensitivity and accuracy requirements of the corresponding analytical methods. Each buffer as initial media was placed in a 50 ml test tube with a stopper, shaken in a constant temperature air shaker at 37° C.±0.5° C., with an amplitude of 200 rpm, and incubated for 1 hour. […] Samples were taken at 0.5 h, 3 h and 6 h after incubation, centrifuged at 37° C., 13000 rpm for 5 minutes, and the supernatant was diluted at least 10 times with the mobile phase under the target analyte analytical method, filtered, the initial filtrate was discarded, and the continued filtrate was used as the test solution for injection analysis. The corresponding HPLC method under each target object item in Table 8 was used to determine the content of each target substance. When the solubility of the target in the initial medium is below the quantitative limit of the analytical method, a small amount of surfactant, such as sodium dodecyl sulfate (SDS), Tween20, or Tween80, can be added appropriately.
Experiments were conducted according to the steps in Comparative Example 1, and quantitative analysis was carried out using the analytical method for each target to investigate the regulation ability of each binary supramolecular self-assembly system built from 0.5% polymer and target on guest molecules stacking.
Ternary supramolecular self-assembly systems based on different polymers, carrier building blocks, and targets were built according to the experimental scheme in Table 12, to investigate the influence of synergistic regulation of the carrier building blocks and the polymers on the stacking of target molecules, as well as the stability of the supramolecular self-assembly systems jointly built by them over incubation time. The initial medium, quantitative analysis method, pre-treatment method, and initial theoretical concentration of the target, corresponding to each target molecule in the experiment, were consistent with those in Comparative Examples 1 and 2. After a target was added to the system, the target was uniformly dispersed by ultrasonication at 37° C. for half an hour and then shaken in a 37° C. constant temperature air shaker, and samples were collected after different incubation time, i.e. 0.5 h, 1 h, 2 h, 3 h, 4 h, and 6 h.

[3] = Guest molecule concentration after incubation in initial medium without polymer (Comparative Example 1); format: physicochemical; details: for Concentration of guest molecule measured after different incubated time: 37° C.; for Concentration of guest molecule in solution: initial medium
Description: as §1
The above targets were incubated at 37° C.±0.5° C. for different time in an initial medium without any polymer. Each solid target formed by molecular stacking was removed by centrifugation, and the supernatant was analyzed using the HPLC method under each target item (see Table 8). The theoretical addition concentration of each target when its supramolecular self-assembly system was built was determined by its maximum dose in clinical use.

[4] = Binary supramolecular self-assembly systems of polymer and target: guest concentration over incubation time (Comparative Example 2); format: physicochemical; details: for Concentration of guest molecule in solution / Times that of the initial medium: 6 h
Description: Experiments were conducted according to the steps in Comparative Example 1, and quantitative analysis was carried out using the analytical method for each target to investigate the regulation ability […] stacking.

[5] = prost derivatives, Table 31 (relevant information)
[6] = binary system with 0.5% polymer 102, incubation 0.5 h
[7] = binary system with 0.5% polymer 102, incubation 3 h
[8] = binary system with 0.5% polymer 102, incubation 6 h
[9] = ternary: 0.25% 102M + 0.25% 301
[10] = ternary: 0.25% 102M + 0.25% 302
[11] = Cannabidiol derivatives, Table 30 (chemical structures)

Structure (SMILES): CCCCC(C)(O)C/C=C/[C@H]1[C@H](O)CC(=O)[C@@H]1CCCCCCC(=O)OC (mixture of isomers) [Misoprostol, misoprostol]
Log P [1, 5]: Log P:3.86 D-H: 2 R-H:4

Structure (SMILES): CCCCC[C@H](O)/C=C/[C@H]1[C@H](O)CC(=O)[C@@H]1CCCCCCC(=O)O [Alprostadil, alprostadil]
Log P [1, 5]: Log P 3.58 H,3 R-H 5

Structure (SMILES): CCCCC[C@](C)(O)/C=C/[C@@H]1[C@@H](C/C=C\CCCC(=O)O)[C@@H](O)C[C@H]1O [Carboprost, carboprost]
Log P [1, 5]: Log P:2.89 D-H: 4 R-H: 5

Times that of the initial medium ([2]; quaternary: 0.25% 204 (102M+103E3) + 0.25% 302, 310, 314 or 318, range over the systems): 13-17 times | Concentration of guest molecule measured after different incubated time ([3]; 0.5 h, pH 4.5 acetate buffer): 48.9 µg/mL | Concentration of guest molecule measured after different incubated time ([3]; 3 h, pH 4.5 acetate buffer): 39.6 µg/mL | Concentration of guest molecule measured after different incubated time ([3]; 6 h, pH 4.5 acetate buffer): 52.0 µg/mL | Concentration of guest molecule in solution ([3]; 6 h): 51.97 µg/mL | Concentration of guest molecule in solution ([4]; binary: 0.5% 103E3): 64.37 µg/mL
Structure (SMILES): COC(=O)[C@H](c1ccccc1Cl)N1CCc2sccc2C1 [Clopidogrel bisulfate]

Structure (SMILES): CCCCC(C)(C)[C@H](O)/C=C/[C@H]1[C@H](O)CC(=O)[C@@H]1CCCC/C=C/C(=O)OC [Gemeprost, gemeprost]
Log P [1, 5]: Log P:4.71 D-H: 2 R-H:4

Structure (SMILES): O=C1C[C@@H]2[C@@H](CC[C@@H](O)CCc3ccccc3)[C@H](O)C[C@@H]2O1 [Latanoprost lactone diol, latanoprost lactone diol]
Log P [1, 5]: Log P: 1.87 D-H: 2 R-H: 3

Concentration of guest molecule in solution ([2]; binary: 0.25% 312): 71.5 µg/mL | Concentration of guest molecule in solution ([2]; binary: 0.25% 314): 56.6 µg/mL | Times that of the initial medium ([2]; binary: 0.25% 314): 81 times | Concentration of guest molecule in solution ([2]; binary: 0.5% 314): 198.8 µg/mL | Times that of the initial medium ([2]; binary: 0.5% 314): 284 times | Concentration of guest molecule in solution ([2]; binary: 0.5% 319): 2.3 µg/mL | Concentration of guest molecule in solution ([2]; ternary: 0.25% 102H + 312, carrier % not stated): 122.1 µg/mL | Concentration of guest molecule in solution ([2]; ternary: 0.25% 319 + 0.25% 101): 11.2 µg/mL | Concentration of guest molecule in solution ([2]; ternary: 102H + 310, carrier % not stated): 204.9 µg/mL | Concentration of guest molecule in solution ([2]; ternary: 102H + 313, carrier % not given): 135.7 µg/mL | Concentration of guest molecule in solution ([2]; ternary: 102H + 318, carrier % not stated): 141.8 µg/mL | Concentration of guest molecule measured after different incubated time ([3]; 0.5 h, pH 6.8 phosphate buffer): 7.3 µg/mL | Concentration of guest molecule measured after different incubated time ([3]; 3 h, pH 6.8 phosphate buffer): 10.7 µg/mL | Concentration of guest molecule measured after different incubated time ([3]; 6 h, pH 6.8 phosphate buffer): 3.2 µg/mL | Concentration of guest molecule in solution ([4]; binary: 0.25% 101): 32.4 µg/mL | Concentration of guest molecule in solution ([4]; binary: 0.25% 102H): 84.4 µg/mL
Structure (SMILES): O=C1[C@@H]2[C@H]3CC[C@H](C3)[C@@H]2C(=O)N1C[C@@H]1CCCC[C@H]1CN1CCN(c2nsc3ccccc23)CC1 [Lurasidone hydrochloride]

Structure (SMILES): CC1=C[C@H](O)CC(C)(C)[C@H]1/C=C/C(C)=C/C=C/C(C)=C/C=C/C=C(C)/C=C/C=C(C)/C=C/C1=C(C)C[C@@H](O)CC1(C)C [Lutein, lutein]
Concentration of guest molecule measured after different incubated time ([3]; 0.5 h, pH 6.8 phosphate buffer): 0.0 µg/mL | Concentration of guest molecule measured after different incubated time ([3]; 3 h, pH 6.8 phosphate buffer): 0.0 µg/mL | Concentration of guest molecule measured after different incubated time ([3]; 6 h, pH 6.8 phosphate buffer): 0.0 µg/mL | Concentration of the target in the solution measured after different incubation time [4, 6]: 16.3 µg/mL | Concentration of the target in the solution measured after different incubation time [4, 7]: 16.9 µg/mL | Concentration of the target in the solution measured after different incubation time [4, 8]: 16.0 µg/mL

Concentration of guest molecule in solution [2, 9]: 290.8 µg/mL | Times that of the initial medium [2, 9]: 26 times | Concentration of guest molecule in solution [2, 10]: 107.2 µg/mL | Times that of the initial medium [2, 10]: 9.7 times | Concentration of guest molecule in solution ([2]; ternary: 0.25% 102M + 0.5% 301): 394 µg/mL | Times that of the initial medium ([2]; ternary: 0.25% 102M + 0.5% 301): 35 times | Times that of the initial medium ([2]; ternary: 102M + 310, 312 or 313): 29 times | Concentration of guest molecule in solution ([2]; ternary: 102M + 318): 253.7 µg/mL | Concentration of guest molecule measured after different incubated time ([3]; 0.5 h, 0.05% SDS in pH 6.8 phosphate buffer): 11.7 µg/mL | Concentration of guest molecule measured after different incubated time ([3]; 3 h, 0.05% SDS in pH 6.8 phosphate buffer): 11.9 µg/mL | Concentration of guest molecule measured after different incubated time ([3]; 6 h, 0.05% SDS in pH 6.8 phosphate buffer): 7.8 µg/mL | Concentration of guest molecule in solution ([3]; 6 h): 18.4 µg/mL | Concentration of the target in the solution measured after different incubation time ([4]; binary system with 0.5% polymer 101, incubation 0.5 h): 132.5 µg/mL | Concentration of the target in the solution measured after different incubation time ([4]; binary system with 0.5% polymer 101, incubation 3 h): 47.2 µg/mL | Concentration of the target in the solution measured after different incubation time ([4]; binary system with 0.5% polymer 101, incubation 6 h): 46.6 µg/mL | Concentration of the target in the solution measured after different incubation time [4, 6]: 169.8 µg/mL | Concentration of the target in the solution measured after different incubation time [4, 7]: 166.0 µg/mL | Concentration of the target in the solution measured after different incubation time [4, 8]: 161.4 µg/mL | Concentration of the target in the solution measured after different incubation time ([4]; binary system with 0.5% polymer 103, incubation 0.5 h): 19.2 µg/mL | Concentration of the target in the solution measured after different incubation time ([4]; binary system with 0.5% polymer 103, incubation 3 h): 20.4 µg/mL | Concentration of the target in the solution measured after different incubation time ([4]; binary system with 0.5% polymer 103, incubation 6 h): 17.5 µg/mL | Concentration of the target in the solution measured after different incubation time ([4]; binary system with 0.5% polymer 104, incubation 0.5 h): 11.9 µg/mL | Concentration of the target in the solution measured after different incubation time ([4]; binary system with 0.5% polymer 104, incubation 3 h): 9.4 µg/mL | Concentration of the target in the solution measured after different incubation time ([4]; binary system with 0.5% polymer 104, incubation 6 h): 9.1 µg/mL | Concentration of the target in the solution measured after different incubation time ([4]; binary system with 0.5% polymer 106, incubation 0.5 h): 16.8 µg/mL | Concentration of the target in the solution measured after different incubation time ([4]; binary system with 0.5% polymer 106, incubation 3 h): 17.4 µg/mL | Concentration of the target in the solution measured after different incubation time ([4]; binary system with 0.5% polymer 106, incubation 6 h): 17.3 µg/mL | Concentration of the target in the solution measured after different incubation time ([4]; binary system with 0.5% polymer 107, incubation 0.5 h): 48.3 µg/mL | Concentration of the target in the solution measured after different incubation time ([4]; binary system with 0.5% polymer 107, incubation 3 h): 52.1 µg/mL | Concentration of the target in the solution measured after different incubation time ([4]; binary system with 0.5% polymer 107, incubation 6 h): 45.5 µg/mL | Concentration of the target in the solution measured after different incubation time ([4]; binary system with 0.5% polymer 110, incubation 0.5 h): 17.0 µg/mL | Concentration of the target in the solution measured after different incubation time ([4]; binary system with 0.5% polymer 110, incubation 3 h): 19.2 µg/mL | Concentration of the target in the solution measured after different incubation time ([4]; binary system with 0.5% polymer 110, incubation 6 h): 19.1 µg/mL | Concentration of guest molecule in solution ([4]; binary: 0.25% 102H): 260.2 µg/mL | Times that of the initial medium ([4]; binary: 0.25% 102H): approximately 14 times | Times that of the initial medium ([4]; binary: 0.25% 102M): about 6 times
Structure (SMILES): CCCSc1nc(N[C@@H]2C[C@H]2c2ccc(F)c(F)c2)c2nnn([C@@H]3C[C@H](OCCO)[C@@H](O)[C@H]3O)c2n1 [Ticagrelor]

Structure (SMILES): O=C(O)CCC/C=C\C[C@@H]1[C@@H](/C=C/[C@@H](O)COc2cccc(C(F)(F)F)c2)[C@H](O)C[C@@H]1O [Travoprost acid, travoprost acid]
Log P [1, 5]: Log P:2.92 D-H: 4 R-H: 6

Structure (SMILES): CC(C)OC(=O)CCC/C=C\C[C@@H]1[C@@H](/C=C/[C@@H](O)COc2cccc(C(F)(F)F)c2)[C@H](O)C[C@@H]1O [Travoprost, travoprost]
Log P [1, 5]: Log P:3.84 D-H: 3 R-H: 5

Encapsulation rate for the guest molecule ([2]; quaternary: 0.25% 207 (101+103E5) + 0.1% 320): ~100%
Structure (SMILES): CC(=O)CC(c1ccccc1)c1c(O)c2ccccc2oc1=O (centres unmarked) [Warfarin]

Structure (SMILES): C=C(C)[C@@H]1CCC(C)=C[C@H]1c1c(O)cc(CCCCC)cc1O [compound 1, ((1′R,2′R)-5′-methyl-4-pentyl-2′-(prop-1-en-2-yl)-1′,2′,3′,4′-tetrahydro-[1,1′-biphenyl]-2,6-diol)]
Log P [1, 11]: Log P = 6.32, H-D:2,H-R = 2

Structure (SMILES): C=C(C)[C@@H]1CCC(C)=C[C@H]1c1c(O)cc(C)cc1O [compound 2, ((1′R,2′R)-4,5′-dimethyl-2′-(prop-1-en-2-yl)-1′,2′,3′,4′-tetrahydro-[1,1′-biphenyl]-2,6-diol)]
Log P [1, 11]: Log P = 4.55, H-D:2,H-R = 2
